Legend:
[1] = test system: primary macrovascular (umbilical vein) endothelial cells (HUVEC); assay: Boyden chamber migration assay of HUVEC in response to bFGF; type: cell-based, human; details: 0.1, 1 or 10 μM; bFGF 50 ng/ml; 5 hours
Method: Both assays were performed on endothelial cells.
Both assays were performed by the Boyden chamber separated in two compartments by polycarbonate filters with 12 μm pores (Nucleoprobe, Cabin John, Md.), coated with collagen IV (Collaborative Biomedical Products) for migration, or with collagen IV and Matrigel together for invasion, as described previously (Barillari et al., 1999b). […] After 5 hours (migration) or 6 hours (Invasion) of incubation, the non-migrated cells present on the top surface of the filters were mechanically removed, while the migrated cells on the bottom surface were fixed in methanol and stained with toluidine blue (Sigma Chemical Co., St. Louis, Mo.). The cells present in 5-10 microscopic fields of the filters, chosen at random, were counted as described previously (Barillari et al., 1999b).
The concentrations of HIV-PI used were the same as those present in plasma of treated patients (Deeks et al., 1997).

[2] = test system: bFGF-induced angiogenic KS-like lesions; assay: bFGF-induced angiogenic KS-like lesions in nude mice; type: in vivo; details: for No. of mice with macroscopic vascular lesions/No. of inoculated mice / mice with macroscopic vascular lesions (%): bFGF 1 μg in matrigel, indinavir 1.4 mg/day or saquinavir 1 mg/day, intragastric gavage, 7 days; for Tissue staining (area % ± SD) CD31 / Tissue staining (area % ± SD) FVIII-RA: bFGF 1 μg, lesional area stained
Method: The mice were then inoculated with bFGF (1 μg) or with its diluting buffer in the presence of matrigel (Kleiner et al., 1993; Ensoli et al., 1994a; Samaniego et al., 1998; Barillari et al., 1999a).
The mice were then sacrificed and the inoculation areas examined both macroscopically and microscopically for the presence of KS-like angioproliferative lesions (Kleiner et al., 1993; Ensoli et al., 1994a; Samaniego et al., 1998; Barillari et al., 1999a).
At the time of sacrifice, the inoculation sites were examined to check for the presence of macroscopic angioproliferative lesions and analyzed microscopically after haematoxilin & eosin (H&E) staining or frozen for histochemical analysis of endothelial the cell markers FVIII-RA and CD31. Here are listed the number (No.) of mice that developed lesions with respect to the number (No.) of mice inoculated, and the percentage (%) of mice that developed lesions. […] Angiogenesis was quantitated by determining the tissue area stained for FVIII-RA or CD31. Shown are the percentages [mean±standard deviations (SD)] of lesional area stained for FVIII-RA or CD31 that were quantitated as described below.
These doses correspond, respectively, to the whole dose, double or half the dose of HIV-PI used daily in patients infected with HIV (Deeks et al., 1997). […] The control animals were treated with the same volume of saline solution. On the third day the mice were inoculated subcutaneously at the level of the lower dorsal quadrant with 1 μg of recombinant bFGF (Roche, Mannheim, Germany) diluted in 0.2 ml of phosphate buffer (PBS)-0.1% bovine […] albumin (BSA) or with its re-suspending buffer, mixed with 0.2 ml of Matrigel (Collaborative Biomedical Products, Bedford, Mass.) prior to inoculation, as described previously (Ensoli et al., 1994a). Four days later the mice were sacrificed, the inoculation sites were examined to check for the presence of macroscopic KS-like angioproliferative lesions, and sections of tissue histologically examined after staining with H&E. For immunohistochemical analysis, frozen tissue sections were fixed with cold acetone and stained with rabbit anti-human FVIII-RA polyclonal antibodies (Ab) (Dako, Glostrup, Denmark; 1:2000 dilution) or anti-mouse CD31 rat monoclonal Ab (BD Biosciences; 1:1000 dilution). Digital images (200× magnification) were captured by a color CCD camera (Zeiss) and analyzed by acquiring 4-9 microscopic fields (about 0.15 mm^2 per field) corresponding to the whole histologic sections. Staining was quantitated by the KS300 (Zeiss) image analysis software and expressed as the percentage of positive area over the total tissue area.

[3] = test system: KS cells; assay: KS cell migration, Boyden chamber, bFGF chemo-attractant; type: cell-based, human; details: 0.01 μM-1 μM, 5 days
Method: In contrast, both drugs inhibited KS cell capability of invading a matrigel substrate in a dose-dependent manner. In particular, both HIV-PI inhibit the invasion of KS cells by 30-40% (p<0.05) (Table 4 and FIG. 13).
Migration and invasion assays were carried out essentially as detailed in the key to FIGS. 2 and 3.

[4] = test system: lesions promoted by bFGF and HIV-1 Tat combined; assay: KS-like lesions promoted by bFGF and HIV-1 Tat combined in nude mice; type: in vivo; details: bFGF 1 μg + Tat 10 μg
Description: Here are listed the number (N.) of mice that developed lesions with respect to the number (N.) of mice inoculated, and the percentage (%) of mice that developed lesions.

[5] = test system: EA-hy 926 cells; assay: Angiogenic tumours induced by EA-hy 926 cells in nude mice (drug pre-treatment); type: in vivo; details: EA-hy 926 cells 3×10^6; for No. of mice with macroscopic lesions/No. of inoculated mice / mice with macroscopic lesions (%): treatment since 2 days prior to inoculation
Method: To determine whether HIV-PI could inhibit the growth of a malignant angiogenic tumour, nude mice were inoculated with the EA-hy 926 cell line. This cell line is derived from a hybrid between H-UVEC and human lung adeno-carcinoma cells (Edgell et al, PNAS 1983), retains most of the endothelial cell markers and is used as an angiogenic tumour model (Albini et al, Nat Med 1996; Albini et al, PNAS 1995; Cai et al, Lab Invest 1999). HIV-PI were administered to nude mice starting 2 days prior to tumour cell inoculation.
Mice were sacrificed 5-6 days after cell injection and lesions present at the injection site measured by caliper, and analyzed microscopically after H&E staining or by immuno-histochemical analysis. […] Tumour-associated angiogenesis was evaluated after immuno-histochemical staining for FVIII-RA or CD31 markers, as described in legend to Table 1. Shown are external lesion size (cm^2±SD) and the percentage of stained tumour tissue (±SD) as quantified by the KS300 image analysis software (Zeiss) (see methods).

Structure (SMILES) | migration induced by bFGF [1] | No. of mice with macroscopic vascular lesions/No. of inoculated mice [2] | mice with macroscopic vascular lesions (%) [2] [%] | Tissue staining (area % ± SD) CD31 [2] [%] | Tissue staining (area % ± SD) FVIII-RA [2] [%] | angiogenesis and infiltration of the cells, microscopic examination of the inoculation sites ([2]; in comparison with mice inoculated with bFGF and not treated) | migration of KS cells [3] | No. of macroscopic vascular lesions/No. of mice injected [4] | mice that developed lesions (%) [4] [%] | External lesion size (cm^2 ± SD) [5] [cm^2] | Tissue staining (area % ± SD) CD31 [5] [%] | Tissue staining (area % ± SD) FVIII-RA [5] [%] | No. of mice with macroscopic lesions/No. of inoculated mice [5] | mice with macroscopic lesions (%) [5] [%] | mice with macroscopic lesions (%) ([5]; listed as indinavir)
CC(C)(C)NC(=O)[C@@H]1CN(Cc2cccnc2)CCN1C[C@@H](O)C[C@@H](Cc1ccccc1)C(=O)N[C@H]1c2ccccc2C[C@H]1O [Indinavir, indinavir] | block | 8/28 | 28 | 1.00 ± 0.6 | 1.32 ± 1.2 | marked reduction | neither indinavir nor saquinavir had any effect | 5/10 | 50 | 0.63 ± 0.17 | 0.70 ± 0.6 | 1.01 ± 1.5 | 4/12 | 33.3 | 33
CC(C)(C)NC(=O)[C@@H]1C[C@@H]2CCCC[C@@H]2CN1C[C@@H](O)[C@H](Cc1ccccc1)NC(=O)[C@H](CC(N)=O)NC(=O)c1ccc2ccccc2n1 [Saquinavir, saquinavir] | block | 7/28 | 25 | 0.83 ± 0.3 | 1.13 ± 0.6 |  | neither indinavir nor saquinavir had any effect | 2/10 | 20 | 0.55 ± 0.14 | 0.08 ± 0.1 | 0.71 ± 0.8 | 3/12 | 25 | 
